Data published in US9521847B2, “Synergistic weed control from applications of pyridine carboxylic acid herbicides and synthetic auxin herbicides and/or auxin transport inhibitors” (Dow AgroSciences LLC, priority 2014, dated 2016).
Read-outs that look alike come from different tables or passages of the source.

Columns and labels:
[1] = system: common lambsquarters (CHEAL, Chenopodium album L.); assay: Greenhouse postemergence trial, % visual injury; format: in vivo; settings: Chenopodium album, post-emergence; 5 g ae/ha alone; 20-22 d; read-out: % visual injury Obs
[2] = system: velvetleaf (Abutilon theophrasti, ABUTH); assay: Greenhouse postemergence trial, % visual injury; format: in vivo; settings: for % visual injury Obs: 5 g ae/ha alone, 20-22 d
[3] = system: nutsedge (Cyperus esculentus, CYPES); assay: Greenhouse postemergence trial, % visual injury; format: in vivo; settings: for pest or weed control at 5 g/ha: Cyperus, post-emergence, 5 g ae/ha alone, 20-22 d, read-out: % visual injury Obs
[4] = system: wild buckwheat (Polygonum convolvulus, POLCO); assay: Greenhouse postemergence trial, % visual injury; format: in vivo; settings: for % visual injury Obs: 5 g ae/ha alone, 20-22 d
[5] = system: common chickweed (Stellaria media, STEME); assay: Greenhouse postemergence trial, % visual injury; format: in vivo; settings: 5 g ae/ha alone; 20-22 d
[6] = system: Canadian thistle (CIRAR, Cirsium arvense); assay: Greenhouse postemergence trial, % visual injury; settings: for pest or weed control at 5 g/ha / pest or weed control at 400 g/ha: Cirsium arvense, post-emergence; for pest or weed control at 5 g/ha: read-out: % visual injury Obs;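 for all read-outs here: plants sprayed at second to third true leaf stage, injury scored visually 20-22 d later against solvent-blank sprayed controls, 0 meaning no injury and 100 complete kill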
[7] = system: poinsettia (Euphorbia heterophylla, EPHHL); assay: Greenhouse postemergence trial, % visual injury; settings: for pest or weed control at 5 g/ha: read-out: % visual injury Obs, 5 g ae/ha alone, 20-22 d
[8] = system: wild pansy (Viola tricolor, VIOTR); assay: Greenhouse postemergence trial, % visual injury; settings: for pest or weed control at 5 g/ha: Viola tricolor, post-emergence, read-out: % visual injury Obs
[9] = system: kochia (KCHSC, Kochia scoparia); assay: Greenhouse postemergence trial, % visual injury; format: in vivo
Description: Following the protocol in Example 1, compound 1 and compound 2 were combined with 2,4 D EHE (EC) and applied to kochia (KCHSC, Kochia scoparia) and the phytotoxicity of the herbicidal compositions was measured.
Following the protocol in Example 1, compound 1 (EC) and Compound 2 (SC) were combined with diflufenzopyr and applied to kochia (Kochia scoparia, KCHSC) and the phytotoxicity of the herbicidal composition was measured.

[10] = system: sunflower (Helianthus annus, HELAN); assay: Greenhouse postemergence trial, % visual injury; format: in vivo
[11] = system: spring rape (Brassica napus, BRSNN); assay: Greenhouse postemergence trial, % visual injury; settings: Brassica napus, post-emergence; for plant injury at 400 g/ha: read-out: % visual injury (Obs); for plant injury at 5 g/ha: read-out: % visual injury Obs
[12] = system: ivyleaf morningglory (Ipomoea hederacea, IPOHE); assay: Greenhouse postemergence trial, % visual injury
winter wheat (TRZAW) = assay: Greenhouse postemergence trial, crop phytotoxicity (% visual injury); settings: for % visual injury Obs: crop, 5 g ae/ha alone, 20-22 d
maize (ZEAMX) = assay: as above; settings: for % visual injury Obs: crop, 5 g ae/ha alone, 20-22 d
common rice (ORYSA) = assay: as above
[13] = system: grain sorghum (Sorghum vulgare, SORVU); assay: Greenhouse postemergence trial, % visual injury; format: in vivo; settings: for % visual injury Obs: 5 g ae/ha alone, 20-22 d
[14] = system: pigweed (AMARE, Amaranthus retroflexus); assay: Greenhouse postemergence trial, % visual injury; format: in vivo; settings: Amaranthus retroflexus, post-emergence; 5 g ae/ha alone; 20-22 d; read-out: % visual injury Obs
[15] = Euphorbia heterophylla, post-emergence

`COC(=O)c1nc(-c2ccc3cc[nH]c3c2F)c(F)c(/N=C/N(C)C)c1Cl` [compound 13] was tested, and the pest or weed control at 5 g/ha [1] was 60%, the “% visual injury Obs” value [2] was 0% and the pest or weed control at 5 g/ha [3] was 0%. For the same molecule, the “% visual injury Obs” value [4] was 25%, the “% visual injury Obs” value [5] was 50% and the pest or weed control at 5 g/ha [6] was 10%. For the same molecule, the pest or weed control at 5 g/ha [7, 15] was 75% and the pest or weed control at 5 g/ha [8] was 25%.

In the case of `O=C(O)COc1ccc(Cl)cc1Cl` [2,4-D DMA, 2,4-D-dimethylammonium], the “% visual injury (Obs)” value ([9]; 2,4-D DMA 400 g ae/ha) is reported as 10%, the “% visual injury (Obs)” value ([2]; 2,4-D DMA 400 g ae/ha) is reported as 75% and the “% visual injury (Obs)” value ([3]; 2,4-D DMA 400 g ae/ha) is reported as 30%. The “% visual injury (Obs)” value ([10]; 2,4-D DMA 400 g ae/ha) was 80%, the pest or weed control at 400 g/ha ([6]; read-out: % visual injury (Obs), 2,4-D DMA 400 g ae/ha) was 70% and the plant injury at 400 g/ha [11] was 85%. For the same molecule, the “% visual injury (Obs)” value ([8]; 2,4-D DMA 400 g ae/ha) was 65%, the “% visual injury (Obs)” value ([12]; 2,4-D DMA 400 g ae/ha) was 80% and the “% visual injury (Obs)” value (winter wheat (TRZAW); 2,4-D DMA 400 g ae/ha) was 0%. The “% visual injury (Obs)” value (maize (ZEAMX); 2,4-D DMA 400 g ae/ha) was 0% and the “% visual injury (Obs)” value (common rice (ORYSA); 2,4-D DMA 400 g ae/ha) was 0%.

With `COc1c(N)nc(-c2ccc3sccc3c2)nc1C(=O)O` [compound 11] the pest or weed control at 5 g/ha [3] was 0%, the “% visual injury Obs” value [4] was 10% and the “% visual injury Obs” value [13] was 5%. The “% visual injury Obs” value [5] was 40%, the pest or weed control at 5 g/ha [6] was 5% and the plant injury at 5 g/ha [11] was 10%. For the same molecule, the pest or weed control at 5 g/ha [7, 15] was 25%, the pest or weed control at 5 g/ha [8] was 10% and the “% visual injury Obs” value (winter wheat (TRZAW)) was 10%.

For `Nc1c(F)c(-c2cc(F)c3[nH]ccc3c2)nc(C(=O)O)c1Cl` [compound 14], the pest or weed control at 5 g/ha [1] was 15%, the “% visual injury Obs” value [2] was 0% and the “% visual injury Obs” value ([10]; 5 g ae/ha alone, 20-22 d) was 10%. For the same molecule, the “% visual injury Obs” value [13] was 0%, the pest or weed control at 5 g/ha [6] was 5% and the plant injury at 5 g/ha [11] was 10%. For the same molecule, the pest or weed control at 5 g/ha [7, 15] was 20%, the pest or weed control at 5 g/ha [8] was 10% and the “% visual injury Obs” value (winter wheat (TRZAW)) was 0%. For the same molecule, the “% visual injury Obs” value (maize (ZEAMX)) was 0%.

`COC(=O)c1nc(-c2ccc3sccc3c2)c(F)c(N)c1Cl` [compound 9] was tested, and the pest or weed control at 5 g/ha [3] was 0%, the “% visual injury Obs” value [4] was 25% and the pest or weed control at 5 g/ha [6] was 10%. For the same molecule, the plant injury at 5 g/ha [11] was 10%, the pest or weed control at 5 g/ha [7, 15] was 60% and the pest or weed control at 5 g/ha [8] was 15%. For the same molecule, the “% visual injury Obs” value (winter wheat (TRZAW)) was 0% and the “% visual injury Obs” value (maize (ZEAMX)) was 0%.

For `Nc1c(Cl)c(Cl)nc(C(=O)O)c1Cl` [picloram-potassium, reference compound], the pest or weed control at 10 g/ha ([9]; Bassia scoparia, post-emergence, KCHSC, 10 g ae/ha, read-out: % visual injury, Obs) was 0%, the pest or weed control at 10 g/ha ([2]; Abutilon theophrasti, post-emergence, ABUTH, 10 g ae/ha, read-out: % visual injury, Obs) was 35% and the “% visual injury, Obs” value ([3]; CYPES, 10 g ae/ha) was 0%. The “% visual injury, Obs” value ([13]; SORVU, 10 g ae/ha) was 0%, the “% visual injury, Obs” value ([6]; CIRAR, 10 g ae/ha) was 60% and the plant injury at 10 g/ha ([11]; read-out: % visual injury, Obs) was 20%. The pest or weed control at 10 g/ha ([7]; Euphorbia heterophylla, post-emergence, read-out: % visual injury, Obs, EPHHL, 10 g ae/ha) was 20%, the “% visual injury, Obs” value ([8]; VIOTR, 10 g ae/ha) was 0% and the pest or weed control at 10 g/ha ([12]; Ipomoea, post-emergence, read-out: % visual injury, Obs, IPOHE, 10 g ae/ha) was 40%. The “% visual injury, Obs” value (winter wheat (TRZAW); TRZAW, 10 g ae/ha) was 0%, the “% visual injury, Obs” value (maize (ZEAMX); ZEAMX, 10 g ae/ha) was 0% and the “% visual injury, Obs” value (common rice (ORYSA); ORYSA, 10 g ae/ha) was 0%.

For `COC(=O)c1nc(-c2ccc3scnc3c2)c(F)c(N)c1Cl` [compound 8], the pest or weed control at 5 g/ha [14] was 78%, the “% visual injury Obs” value [2] was 20% and the “% visual injury Obs” value [5] was 45%. The pest or weed control at 5 g/ha [6] was 30%, the plant injury at 5 g/ha [11] was 63% and the pest or weed control at 5 g/ha [7, 15] was 84%. The pest or weed control at 5 g/ha [8] was 10% and the “% visual injury Obs” value (winter wheat (TRZAW)) was 5%.

With `O=C(O)CCCOc1ccc(Cl)cc1Cl` [2,4-DB DMA, 4-DB-dimethylammonium (2,4-DB DMA)] the “% visual injury (Obs)” value ([9]; 2,4-DB DMA 400 g ae/ha) was 10%, the “% visual injury (Obs)” value ([3]; 2,4-DB DMA 400 g ae/ha) was 0% and the “% visual injury (Obs)” value ([4]; 2,4-DB DMA 400 g ae/ha) was 60%. The pest or weed control at 400 g/ha ([6]; read-out: % visual injury (Obs), 2,4-DB DMA 400 g ae/ha) was 40%, the plant injury at 400 g/ha [11] was 70% and the “% visual injury (Obs)” value ([7]; 2,4-DB DMA 400 g ae/ha) was 10%. The “% visual injury (Obs)” value ([12]; 2,4-DB DMA 400 g ae/ha) was 70%, the “% visual injury (Obs)” value (winter wheat (TRZAW); 2,4-DB DMA 400 g ae/ha) was 10% and the “% visual injury (Obs)” value (maize (ZEAMX); 2,4-DB DMA 400 g ae/ha) was 0%. For the same molecule, the “% visual injury (Obs)” value (common rice (ORYSA); 2,4-DB DMA 400 g ae/ha) was 0%.
